Assay results from the supplement of paper PMC11061612.

Assays:
Assay in all cases: Bliss excess, mean over the matrix (fraction); higher = more synergy
CAL-72 (Osteosarcoma) = system: CAL-72 (Osteosarcoma)
In short: (§1)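 After 24 hours at 37°C and 5% CO2 in 1536-well plates, cells in DMEM/F12 or RPMI plus 10% FBS received two-drug dose matrices for 72 hours. Viability came from CellTiter-Glo 2.0 luminescence and was scaled as inhibition, anchored at 0 by vehicle wells and at 1 by blank wells. Combination Emax is taken as the second-highest inhibition in the matrix, and Bliss excess as the observed combination effect less EA + EB − EA·EB, with EA and EB the single-agent effects.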

EW-11 (Ewing's Sarcoma) = system: EW-11 (Ewing's Sarcoma)
In short: as §1

[1] = system: HH (T-Cell Non-Hodgkin's Lymphoma)
In short: as §1

LOXIMVI (Melanoma) = system: LOXIMVI (Melanoma)
In short: as §1

[2] = system: LS-123 (Colorectal Carcinoma)
In short: as §1

[3] = system: OVCAR-5 (Ovarian Carcinoma)
In short: as §1

[4] = system: ALL-PO (B-Lymphoblastic Leukemia)
In short: as §1

[5] = system: LCLC-97TM1 (Non-Small Cell Lung Carcinoma)
In short: as §1

[6] = system: NCI-H209 (Small Cell Lung Carcinoma)
In short: as §1

[7] = system: SW1573 (Lung Adenocarcinoma)
In short: as §1

SMILES	Bliss excess (CAL-72 (Osteosarcoma))	Bliss excess (EW-11 (Ewing's Sarcoma))	Bliss excess [1]	Bliss excess (LOXIMVI (Melanoma))	Bliss excess [2]	Bliss excess [3]	Bliss excess [4]	Bliss excess [5]	Bliss excess [6]	Bliss excess [7]
C=CCn1c(=O)c2cnc(Nc3ccc(N4CCN(C)CC4)cc3)nc2n1-c1cccc(C(C)(C)O)n1 [AZD1775] + Nc1ccn([C@@H]2O[C@H](CO)[C@@H](O)C2(F)F)c(=O)n1 [Gemcitabine] (first compound max 1 µM, partner max 0.3 µM)	-0.0796	-0.0613	-0.0316	-0.0118	-0.0068	0.0364	–	–	–	–
CN(CCO)CC[C@H](CSc1ccccc1)Nc1ccc(S(=O)(=O)NC(=O)c2ccc(N3CCC([C@@H](O)c4ccccc4-c4ccc(Cl)cc4)CC3)cc2)cc1S(=O)(=O)C(F)(F)F [AZD4320] + C1CN(CCC1(C(=O)N[C@@H](CCO)C2=CC=C(C=C2)Cl)N)C3=NC=NC4=C3C=CN4 [Capivasertib] (first compound max 1 µM, 7x7, partner max 3 µM)	-0.0184	0.0405	0.0193	-0.0189	–	-0.0487	0.0177	-0.0048	-0.0057	-0.0614
CN(CCO)CC[C@H](CSc1ccccc1)Nc1ccc(S(=O)(=O)NC(=O)c2ccc(N3CCC([C@@H](O)c4ccccc4-c4ccc(Cl)cc4)CC3)cc2)cc1S(=O)(=O)C(F)(F)F [AZD4320] + C=CCn1c(=O)c2cnc(Nc3ccc(N4CCN(C)CC4)cc3)nc2n1-c1cccc(C(C)(C)O)n1 [AZD1775] (first compound max 1 µM, partner max 1 µM)	0.0392	0.091	0.0911	0.0203	–	–	0.0631	0.0015	0.0963	0.0152
CN(CCO)CC[C@H](CSc1ccccc1)Nc1ccc(S(=O)(=O)NC(=O)c2ccc(N3CCC([C@@H](O)c4ccccc4-c4ccc(Cl)cc4)CC3)cc2)cc1S(=O)(=O)C(F)(F)F [AZD4320] + CS(=O)(=O)CCNCc1ccc(-c2ccc3ncnc(Nc4ccc(OCc5cccc(F)c5)c(Cl)c4)c3c2)o1 [Lapatinib] (first compound max 1 µM, 7x7, partner max 10 µM)	-0.0174	0.0342	0.0112	0.0113	–	-0.0031	–	–	–	–
Cc1c2c(nn1C)CSCc1cc(n(C)n1)CSc1cc(c3ccccc3c1)OCCCc1c(C(=O)O)n(C)c3c-2c(Cl)ccc13 [AZD5991] + CC1(C)CCC(CN2CCN(c3ccc(C(=O)NS(=O)(=O)c4ccc(NCC5CCOCC5)c([N+](=O)[O-])c4)c(Oc4cnc5[nH]ccc5c4)c3)CC2)=C(c2ccc(Cl)cc2)C1 [Venetoclax] (first compound max 1 µM, 7x7, partner max 1 µM)	0.0676	0.144	0.0016	-0.0182	-0.026	-0.0365	–	-0.023	0.241	-0.0549
Cc1c2c(nn1C)CSCc1cc(n(C)n1)CSc1cc(c3ccccc3c1)OCCCc1c(C(=O)O)n(C)c3c-2c(Cl)ccc13 [AZD5991] + CC(=O)O[C@H]1C(=O)[C@@]2(C)[C@H]([C@H](OC(=O)c3ccccc3)[C@]3(O)C[C@H](OC(=O)[C@H](O)[C@@H](NC(=O)c4ccccc4)c4ccccc4)C(C)=C1C3(C)C)[C@]1(OC(C)=O)CO[C@@H]1C[C@@H]2O [Paclitaxel] (first compound max 1 µM, 7x7, partner max 3 µM)	-0.0853	0.0039	0.0737	-0.0081	-0.0691	-0.0389	–	–	–	–
Cc1c2c(nn1C)CSCc1cc(n(C)n1)CSc1cc(c3ccccc3c1)OCCCc1c(C(=O)O)n(C)c3c-2c(Cl)ccc13 [AZD5991] + CS(=O)(=O)CCNCc1ccc(-c2ccc3ncnc(Nc4ccc(OCc5cccc(F)c5)c(Cl)c4)c3c2)o1 [Lapatinib] (first compound max 1 µM, 7x7, partner max 10 µM)	0.0088	-0.0014	-0.0635	0.017	-0.0106	-0.0071	–	–	–	–
Cc1c2c(nn1C)CSCc1cc(n(C)n1)CSc1cc(c3ccccc3c1)OCCCc1c(C(=O)O)n(C)c3c-2c(Cl)ccc13 [AZD5991] + Cc1cc2ncnn2cc1Nc1ncc2c(n1)n(C1CCOCC1)c(=O)n2C [AZD7648] (first compound max 1 µM, 7x7, partner max 10 µM)	-0.0475	-0.0197	-0.0536	0.0193	-0.0378	-0.0913	-0.0304	-0.0015	–	-0.0896
C[C@@H]1COCCN1c1cc(C2([S@](C)(=N)=O)CC2)nc(-c2ccnc3[nH]ccc23)n1 [AZD6738] + C1CC(C1)(C(=O)[O-])C(=O)[O-].N.N.[Pt+2] [Carboplatin] (first compound max 10 µM, 7x7, partner max 10 µM)	-0.063	-0.041	-0.0016	-0.0438	-0.0239	-0.0347	–	–	–	–
C[C@@H]1COCCN1c1cc(C2([S@](C)(=N)=O)CC2)nc(-c2ccnc3[nH]ccc23)n1 [AZD6738] + Nc1ccn([C@@H]2O[C@H](CO)[C@@H](O)C2(F)F)c(=O)n1 [Gemcitabine] (first compound max 10 µM, 7x7, partner max 0.3 µM)	0.0282	-0.0094	0.0778	0.0221	0.104	-0.0407	–	–	–	–
C[C@@H](Nc1cc(F)cc(F)c1)c1cc(C(=O)N(C)C)cc2c(=O)cc(N3CCOCC3)oc12 [AZD8186] + C1CN(CCC1(C(=O)N[C@@H](CCO)C2=CC=C(C=C2)Cl)N)C3=NC=NC4=C3C=CN4 [AZD5363] (first compound max 10 µM, 7x7, partner max 10 µM)	-0.0293	-0.0265	-0.125	-0.0495	-0.0327	-0.0442	–	–	–	–
C[C@@H](Oc1cc(-c2cnn(C3CCNCC3)c2)cnc1N)c1c(Cl)ccc(F)c1Cl [Crizotinib] + CC1=C(C(=CC=C1)Cl)NC(=O)C2=CN=C(S2)NC3=CC(=NC(=N3)C)N4CCN(CC4)CCO [Dasatinib] (first compound max 10 µM, 7x7, partner max 2 µM)	0.0078	-0.0571	-0.0138	0.0145	0.0166	0.0338	–	–	–	–
C[C@@H](Oc1cc(-c2cnn(C3CCNCC3)c2)cnc1N)c1c(Cl)ccc(F)c1Cl [Crizotinib] + Cn1cnc2c(F)c(Nc3ccc(Br)cc3Cl)c(C(=O)NOCCO)cc21 [Selumetinib] (first compound max 10 µM, 7x7, partner max 10 µM)	-0.0411	-0.0627	-0.0238	-0.0068	-0.0378	-0.0324	–	–	–	–
CS(=O)(=O)CCNCc1ccc(-c2ccc3ncnc(Nc4ccc(OCc5cccc(F)c5)c(Cl)c4)c3c2)o1 [Lapatinib] + Cn1cnc2c(F)c(Nc3ccc(Br)cc3Cl)c(C(=O)NOCCO)cc21 [Selumetinib] (first compound max 10 µM, 7x7, partner max 10 µM)	-0.0254	-0.0259	-0.0496	-0.0701	0.0002	-0.0161	–	–	–	–
CS(=O)(=O)CCNCc1ccc(-c2ccc3ncnc(Nc4ccc(OCc5cccc(F)c5)c(Cl)c4)c3c2)o1 [Lapatinib] + NC1(c2ccc(-c3nc4ccn5c(=O)[nH]nc5c4cc3-c3ccccc3)cc2)CCC1 [MK-2206] (first compound max 10 µM, 7x7, partner max 10 µM)	0.0288	-0.0003	-0.0002	0.043	0.0101	-0.0101	–	–	–	–
O=C(c1cc(Cc2n[nH]c(=O)c3ccccc23)ccc1F)N1CCN(C(=O)C2CC2)CC1 [Olaparib] + CC1(C)CCC(CN2CCN(c3ccc(C(=O)NS(=O)(=O)c4ccc(NCC5CCOCC5)c([N+](=O)[O-])c4)c(Oc4cnc5[nH]ccc5c4)c3)CC2)=C(c2ccc(Cl)cc2)C1 [Venetoclax] (first compound max 10 µM, 7x7, partner max 1 µM)	-0.0215	0.0371	-0.0246	0.0029	-0.0413	-0.061	–	–	–	–
O=C(c1cc(Cc2n[nH]c(=O)c3ccccc23)ccc1F)N1CCN(C(=O)C2CC2)CC1 [Olaparib] + CN(CC[C@H](CSC1=CC=CC=C1)NC2=C(C=C(C=C2)S(=O)(=O)NC(=O)C3=CC=C(C=C3)N4CCC(CC4)[C@H](C5=CC=CC=C5C6=CC=C(C=C6)Cl)O)S(=O)(=O)C(F)(F)F)CCO [AZD4320] (first compound max 10 µM, 7x7, partner max 1 µM)	-0.0332	0.0141	-0.0133	0.0022	-0.0647	-0.0414	–	–	–	–
O=C(c1cc(Cc2n[nH]c(=O)c3ccccc23)ccc1F)N1CCN(C(=O)C2CC2)CC1 [Olaparib] + COc1nnc2ccc(N3CCC(c4ccc(OCCN5CCN(C)C(=O)[C@H]5C)cc4)CC3)nn12 [AZD5153] (first compound max 10 µM, 7x7, partner max 1 µM)	-0.0056	-0.0063	-0.0066	-0.0792	-0.0084	-0.0584	–	–	–	–
O=C(c1cc(Cc2n[nH]c(=O)c3ccccc23)ccc1F)N1CCN(C(=O)C2CC2)CC1 [Olaparib] + Cc1c2c(nn1C)CSCc1cc(n(C)n1)CSc1cc(c3ccccc3c1)OCCCc1c(C(=O)O)n(C)c3c-2c(Cl)ccc13 [AZD5991] (first compound max 10 µM, 7x7, partner max 1 µM)	-0.0242	-0.0175	-0.0339	-0.0409	-0.0658	-0.0729	–	–	–	–
Cc1nc(-c2cn3c(n2)-c2ccc(-c4cnn(C(C)(C)C(N)=O)c4)cc2OCC3)n(C(C)C)n1 [Taselisib] + O=C(Nc1ccc2[nH]nc(-c3ccncc3)c2c1)[C@@H]1CCN(CC(=O)N2CCN(c3ccc(-c4ncccn4)cc3)CC2)C1 [SCH772984] (first compound max 10 µM, 7x7, partner max 5 µM)	-0.0562	-0.002	0.0858	0.091	0.0028	0.0022	–	–	–	–
CC1(C)CCC(CN2CCN(c3ccc(C(=O)NS(=O)(=O)c4ccc(NCC5CCOCC5)c([N+](=O)[O-])c4)c(Oc4cnc5[nH]ccc5c4)c3)CC2)=C(c2ccc(Cl)cc2)C1 [Venetoclax] + CS(=O)(=O)CCNCc1ccc(-c2ccc3ncnc(Nc4ccc(OCc5cccc(F)c5)c(Cl)c4)c3c2)o1 [Lapatinib] (first compound max 1 µM, 7x7, partner max 10 µM)	-0.0527	0.0195	-0.0178	0.007	-0.0595	-0.0479	–	–	–	–
